From patent US20120178815A1, “Compositions of (-)-E-10-OH-NT and Methods for Their Synthesis and Use” (Adolor Corporation, priority 2007, published 2012)
“Also recorded” adds a separate entry of the source.

How the values were obtained:
pain intensity = conditions: study completers; Atkinson et al., 1999; cited from earlier work
NE uptake, mouse atria = target: T1, NE uptake, mouse atria (Mus musculus, UniProt O55192); conditions: Hyttel, 1980; cited from earlier work
T1 construct: host or cells: mouse atria

[1] = system: L5 SNL rats, tactile allodynia; assay: L5-Single Nerve Ligation model of neuropathic pain (von Frey); format: in vivo, rat; conditions: 30 mg/kg, i.p.
Description: Protocol. […] The test animals were placed in a Plexiglas chamber (10 cm×20 cm×25 cm) and habituated for 15 minutes. The chamber was positioned on top of a mesh screen so that von Frey monofilaments could be presented to the plantar surface of both hindpaws. Measurement of tactile sensitivity for each hindpaw were obtained using the up/down method (Dixon, 1980) with seven Frey monofilaments (0.4, 1, 2, 4, 6, 8 and 15 grams). Each trial started with a von Frey force of 2 grams delivered to the right hindpaw for approximately 1-2 seconds and then the left hindpaw. If there was no withdrawal response, the next higher force was delivered. If there was a response, the next lower force was delivered. This procedure was performed until no response was made at the highest force (15 grams) or until four stimuli were administered following the initial response. Each test group contained 8 animals. The sham-operated control group, which were operated on but not subject to nerve ligation, contained 4 animals. All animals were tested at 60 minutes, and 240 minutes, post-administration of test compounds.
The 50% paw withdrawal threshold for each paw was calculated using the following formula: [Xth] log=[vFr] log+ky where [vFr] is the force of the last von Frey used, k=0.2249 which is the average interval (in log units) between the von Frey monofilaments, and y is a value that depends upon the pattern of withdrawal responses (Dixon, 1980). […] Testing for tactile sensitivity was performed twice and the mean 50% withdrawal value assigned as the tactile sensitivity for the right and left paws for each animal.
The E-10-OH-NT compounds were administered as either a maleate or succinate salt. AT was administered as a hydrochloride salt. Dosage amounts are based on the amount of free base. The test animals were placed in a Plexiglas chamber (10 cm×20 cm×25 cm) and habituated for 15 minutes. The chamber was positioned on top of a mesh screen so that von Frey monofilaments could be presented to the plantar surface of both hindpaws. Measurement of tactile sensitivity for each hindpaw were obtained using the up/down method (Dixon, 1980) with seven Frey monofilaments (0.4, 1, 2, 4, 6, 8 and 15 grams). Each trial started with a von Frey force of 2 grams delivered to the right hindpaw for approximately 1-2 seconds and then the left hindpaw. If there was no withdrawal response, the next higher force was delivered. If there was a response, the next lower force was delivered. This procedure was performed until no response was made at the highest force (15 grams) or until four stimuli were administered following the initial response. Each test group contained 8 animals. The sham-operated control group, which were operated on but not subject to nerve ligation, contained 4 animals. […]

[2] = target: human NE transporter (hNET) (Homo sapiens, UniProt P23975); assay: NE transporter competitive binding assay, [3H]nisoxetine; conditions: Example 14; read-out: NET Ki
Description: (§1) Protocol. […] Bound radioactivity was determined by scintillation spectroscopy. Non-specific binding was defined as the amount of binding that occurred in the presence of 1.0 μM desipramine. The Ki values of the various test compounds were determined using standard methods.
as §1

[3] = target: T2, human serotonin transporter (hSERT) (Homo sapiens, UniProt P31645); assay: 5HT transporter competitive binding assay, [3H]imipramine; conditions: Example 14; read-out: SERT Ki
T2 construct: expressed in transfected cells; host or cells: CHO cells (membranes)
Description: (§2) Bound radioactivity was determined by scintillation spectroscopy. […] The Ki values of the various test compounds were determined using standard methods.
as §2

[4] = Hygroscopicity of salt form; format: physicochemical; conditions: crystalline salt
[5] = system: acetic acid-induced abdominal constriction; conditions: cited from earlier work

T1 sequence (O55192 whole entry): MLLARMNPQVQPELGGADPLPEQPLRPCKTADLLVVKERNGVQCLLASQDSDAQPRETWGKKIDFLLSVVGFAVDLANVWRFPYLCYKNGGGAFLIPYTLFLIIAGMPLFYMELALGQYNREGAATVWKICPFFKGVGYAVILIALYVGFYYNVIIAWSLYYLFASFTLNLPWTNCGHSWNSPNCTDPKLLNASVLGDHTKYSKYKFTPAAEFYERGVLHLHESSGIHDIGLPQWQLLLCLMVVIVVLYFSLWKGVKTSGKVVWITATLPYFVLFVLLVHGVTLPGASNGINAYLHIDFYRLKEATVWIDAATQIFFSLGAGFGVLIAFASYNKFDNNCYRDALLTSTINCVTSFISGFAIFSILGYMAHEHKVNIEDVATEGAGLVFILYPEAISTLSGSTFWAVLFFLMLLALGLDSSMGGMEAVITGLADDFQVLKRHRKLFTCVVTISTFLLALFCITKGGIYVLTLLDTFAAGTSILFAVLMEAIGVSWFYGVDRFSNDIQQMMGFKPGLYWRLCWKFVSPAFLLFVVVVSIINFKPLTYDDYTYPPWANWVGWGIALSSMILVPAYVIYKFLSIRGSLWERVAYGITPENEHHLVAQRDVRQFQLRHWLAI
T2 sequence (P31645 whole entry): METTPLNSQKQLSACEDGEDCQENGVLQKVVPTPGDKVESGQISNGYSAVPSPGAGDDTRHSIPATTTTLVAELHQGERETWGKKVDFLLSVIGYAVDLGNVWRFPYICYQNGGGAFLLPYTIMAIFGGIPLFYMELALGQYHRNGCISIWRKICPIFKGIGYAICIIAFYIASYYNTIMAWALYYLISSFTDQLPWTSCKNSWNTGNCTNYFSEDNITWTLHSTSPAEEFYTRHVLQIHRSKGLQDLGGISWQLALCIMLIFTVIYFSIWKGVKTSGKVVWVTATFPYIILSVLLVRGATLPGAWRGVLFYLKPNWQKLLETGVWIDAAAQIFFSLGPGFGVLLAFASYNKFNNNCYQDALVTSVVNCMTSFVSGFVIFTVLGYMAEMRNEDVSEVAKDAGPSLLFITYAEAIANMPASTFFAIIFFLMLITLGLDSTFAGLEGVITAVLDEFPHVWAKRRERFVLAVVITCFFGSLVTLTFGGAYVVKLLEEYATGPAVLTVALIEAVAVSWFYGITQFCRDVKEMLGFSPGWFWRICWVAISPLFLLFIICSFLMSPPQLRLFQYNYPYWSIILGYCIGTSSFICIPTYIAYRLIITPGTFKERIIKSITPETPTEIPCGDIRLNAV
human NE transporter (hNET), sequence (P23975 whole entry): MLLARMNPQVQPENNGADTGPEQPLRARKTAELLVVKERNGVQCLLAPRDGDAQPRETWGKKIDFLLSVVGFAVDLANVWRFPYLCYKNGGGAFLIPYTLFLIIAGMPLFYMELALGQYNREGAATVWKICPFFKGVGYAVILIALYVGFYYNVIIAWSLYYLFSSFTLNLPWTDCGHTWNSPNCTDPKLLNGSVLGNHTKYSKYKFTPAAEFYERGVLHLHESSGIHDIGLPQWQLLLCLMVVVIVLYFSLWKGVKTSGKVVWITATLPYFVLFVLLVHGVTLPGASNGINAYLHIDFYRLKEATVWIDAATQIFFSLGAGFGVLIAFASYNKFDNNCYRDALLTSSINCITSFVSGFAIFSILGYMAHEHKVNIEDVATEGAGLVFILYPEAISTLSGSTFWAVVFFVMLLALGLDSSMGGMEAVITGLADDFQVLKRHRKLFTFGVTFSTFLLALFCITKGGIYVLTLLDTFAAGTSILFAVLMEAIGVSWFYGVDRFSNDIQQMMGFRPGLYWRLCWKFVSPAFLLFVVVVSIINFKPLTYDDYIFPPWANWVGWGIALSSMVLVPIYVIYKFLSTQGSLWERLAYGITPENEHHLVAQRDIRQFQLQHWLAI

**Q.** Which “reduction in pain intensity” value (pain intensity) does the source give for `CNCCCC12CCC(c3ccccc31)c1ccccc12` [maprotiline] here?
**A.** 45%

**Q.** With `CNCC/C=C1\c2ccccc2CC(O)c2ccccc21` (racemic) [(±)-E-10-OH-NT, (S/R)-5-[3-Methylamino-prop-(E)-ylidene]-10,11-dihydro-5H-dibenzo[a,d]cyclohepten-10-ol, reference compound] as the molecule, how does the IC50 (NE uptake, mouse atria) read?
**A.** 130 nM

**Q.** And the antiallodynic activity [1]?
**A.** comparable to that of the vehicle-only control

**Q.** What about the Ki [2] of the same molecule?
**A.** 51 nM

**Q.** What about the Ki [3] of the same molecule?
**A.** 420 nM

**Q.** For `CNCC/C=C1\c2ccccc2CC(O)c2ccccc21.O=C(O)CCC(=O)O` (single isomer, unassigned; (-)) [(−)-E-10-OH-NT Succinate], which hygroscopicity [4] is on record?
**A.** non-hydroscopic; also recorded: non-hygroscopic

**Q.** With `Fc1ccc([C@@H]2CCNC[C@H]2COc2ccc3c(c2)OCO3)cc1` [paroxetine] as the molecule, how does the “reduction in pain intensity” value (pain intensity) read?
**A.** 26%

**Q.** For `COC1(C2=NCCN2)COc2ccccc2O1` (stereo not drawn) [RX821002, [2-(2-methoxy-1, -4-benzodioxan-2-yl)-2-imidazoline]], which “inhibition of acetic acid-induced abdominal constriction” value ([5]; doses up to 3 mg/kg, subcutaneously, by itself) is on record?
**A.** did not produce significant inhibition

**Q.** For `Clc1cccc(Cl)c1N=C1NCCN1` [clonidine], which “protection against acetic acid-induced abdominal constriction” value ([5]; highest dose level, 1.0 mg/kg (s.c.)) is on record?
**A.** 100%
